Results published in patent publication US20210071180A1, “MICRORNA 584-5P COMPOSITIONS AND METHODS FOR TREATING CANCER” (BOARD OF REGENTS, THE UNIVERSY OF TEXAS SYSTEM, priority 2018, published 2021).

Key:
Type in all cases: cell-based
MB cells = assay: Cell viability, proliferation, clonogenic and transwell migration assays
Protocol: Cell viability and proliferation assays. MB cells transfected with miR-584-5p mimic or target siRNAs were seeded in 96-well plates at a density of 5×10^3 for D556Med and DAOY or 10×10^3 for D425Med and D458Med per well for 72 hours. Cell viability was assessed using CellTiter-Glo (Promega) or alamarBlue (Thermofisher), and proliferation was assessed using CyQuant Direct Cell Proliferation Assay (Thermofisher).
Next, the in vitro results were validated by determining the function of miR-584-5p in MB and by using an in vivo tumor xenograft model to test the efficacy of miR-584-5p-VCR combination therapy. […] In FIG. 3A, cell proliferation was measured by CyQuant Cell Proliferation Assay. The p-values were determined using standard Student t-tests. […] In FIG. 3B, cell proliferation was measured using an IncuCyte phase-only processing module. […] The p-value was calculated using a standard Student t-test. […] The p-value was calculated using a standard Student t-test. […] In FIG. 4F, The p-value was calculated using a standard Student t-test. […] Cell proliferation was measured using an IncuCyte phase-only processing module. ****, p<0.0001. […]
To determine whether miR-584-5p imparts its tumor-suppressing and VCR-sensitizing effect by downregulating HDAC1/eIF4E3 levels in MB, the function of eIF4E3 and HDAC1 in MB was investigated. […] The p-values in FIGS. 6C and D were calculated using a standard Student t-test. […]

U20S-DR-GFP cells = assay: ISceI-based DR-GFP reporter assay of homologous recombination; conditions: cells stably expressing DR-GFP reporter, FACS
Protocol: Bar graphs next to images show average number of 53BP1 foci/cell. The p-values were determined by two-way ANOVA followed by Sidak's multiple-comparisons test. Error bars represent mean±SEM. Because miR-584-5p induces apoptosis, it was reasoned that DNA strand breaks induced by miR-584-5p and eIF4E3/HDAC1 silencing may not be properly repaired. To confirm those findings, a functional assay was performed to monitor homologous recombination (HR) because HR-dependent events repair IR-induced double-strand breaks in G2 phase. The ISceI-based DR-GFP reporter assay, which measures the frequency of double-strand break repair by HR (Gunn, A., Bennardo, N., Cheng, A. & Stark, J. M. Journal of Biological Chemistry 286, 42470-42482, (2011); Pierce, A. J., Johnson, R. D., Thompson, L. H. & Jasin, M. Genes & Development 13, 2633-2638, (1999); and Stark, J. M., Pierce, A. J., Oh, J., Pastink, A. & Jasin, M. Molecular and Cellular Biology 24, 9305-9316, (2004)), was used. […] U20S-DR-GFP cells were transfected with miR-NC or miR-584-5p or scramble-siRNA or eIF4E3/HDAC1-siRNAs followed by transfection with pCAGGS vector with ISceI/GFP. I-SceI expression leads to double-strand breaks that HR repairs by using the wild-type GFP, resulting in GFP^+ cells. […] The p-values were calculated using either Student t-tests (mimic) or one-way ANOVA followed by Dunnett's multiple-comparisons test (siRNAs). […]

normal neural stem cell = assay: Normal neural stem cell growth

Q: How did the “long-term viability and migration elicited by HDAC1/eIF4E3 overexpression” value (MB cells; D556Med cells cotransfected with eIF4E3/HDAC1 expression vector and miR-584-5p mimic) turn out when “miR-584-5p: microRNA mimic; nucleotide sequence UUAUGGUUUGCCUGGGACUGAG (SEQ ID NO: 1); purchased from Thermofisher (chemistry not given here)” was run?
A: The value was “rescued the increased long-term viability and migration”.

Q: And the “short-term and long-term viability as well as migration of MB cells” value (MB cells; vs miR-NC)?
A: The value was “reduced”.

Q: What about the “GFP-positive cells (homologous recombination events)” value (U20S-DR-GFP cells) of the same substance?
A: Its value is “significantly fewer GFP-positive cells”.

Q: And the “normal neural stem cell growth” value (normal neural stem cell)?
A: Its value is “without affecting normal neural stem cell growth”.
